Experimental data as given in the NIST ThermoML archive (doi:10.1016/j.jct.2017.07.004).

Test: xn = mol fraction of the nth substance listed
Conditions: 100 kPa, Liquid; for viscosity: Concentric cylinders viscometry; for mass density: Vibrating tube method

CCC=O [propanal] + CC(C)O
Conditions	mass density [kg/m3]	viscosity [mPa·s]
293.15 K, x1 = 0.0812	792	2.37
293.15 K, x1 = 0.16	797.2	2.3
293.15 K, x1 = 0.24	801.6	2.2
293.15 K, x1 = 0.3499	806.4	2
293.15 K, x1 = 0.4402	809.2	1.81
293.15 K, x1 = 0.5619	811.4	1.52
293.15 K, x1 = 0.6483	811.8	1.3
293.15 K, x1 = 0.74	811.3	1.06
293.15 K, x1 = 0.85	809.1	0.76
293.15 K, x1 = 0.94	806	0.51
293.15 K, x1 = 1	802.4	0.34
298.15 K, x1 = 0.0812	786.6	2.04
298.15 K, x1 = 0.16	791.5	1.97
298.15 K, x1 = 0.24	795.9	1.88
298.15 K, x1 = 0.3499	800.4	1.72
298.15 K, x1 = 0.4402	803	1.56
298.15 K, x1 = 0.5619	804.9	1.32
298.15 K, x1 = 0.6483	805	1.13
298.15 K, x1 = 0.74	804.1	0.93
298.15 K, x1 = 0.85	802.3	0.67
298.15 K, x1 = 0.94	799.1	0.46
298.15 K, x1 = 1	796.2	0.33
303.15 K, x1 = 0.0812	781.5	1.76
303.15 K, x1 = 0.16	786.2	1.69
303.15 K, x1 = 0.24	790	1.61
303.15 K, x1 = 0.3499	794.5	1.47
303.15 K, x1 = 0.4402	797.1	1.33
303.15 K, x1 = 0.5619	798.8	1.13
303.15 K, x1 = 0.6483	798.8	0.97
303.15 K, x1 = 0.74	797.8	0.8
303.15 K, x1 = 0.85	795.8	0.59
303.15 K, x1 = 0.94	792.6	0.42
303.15 K, x1 = 1	790.3	0.31
308.15 K, x1 = 0.0812	776.7	1.52
308.15 K, x1 = 0.16	780.9	1.46
308.15 K, x1 = 0.24	784.3	1.38
308.15 K, x1 = 0.3499	788.2	1.26
308.15 K, x1 = 0.4402	790.5	1.14
308.15 K, x1 = 0.5619	792	0.97
308.15 K, x1 = 0.6483	792	0.83
308.15 K, x1 = 0.74	791.4	0.69
308.15 K, x1 = 0.85	789.5	0.52
308.15 K, x1 = 0.94	786.4	0.39
308.15 K, x1 = 1	784.5	0.3
313.15 K, x1 = 0.0812	771.8	1.31
313.15 K, x1 = 0.16	775.5	1.24
313.15 K, x1 = 0.24	778.8	1.17
313.15 K, x1 = 0.3499	782.4	1.06
313.15 K, x1 = 0.4402	784.3	0.96
313.15 K, x1 = 0.5619	785.7	0.83
313.15 K, x1 = 0.6483	785.8	0.72
313.15 K, x1 = 0.74	785.3	0.61
313.15 K, x1 = 0.85	783.3	0.47
313.15 K, x1 = 0.94	780.8	0.36
313.15 K, x1 = 1	779	0.28
318.15 K, x1 = 0.0812	766.8	1.14
318.15 K, x1 = 0.16	770.2	1.08
318.15 K, x1 = 0.24	773.1	1.01
318.15 K, x1 = 0.3499	776.5	0.91
318.15 K, x1 = 0.4402	778.4	0.83
318.15 K, x1 = 0.5619	779.7	0.71
318.15 K, x1 = 0.6483	779.7	0.63
318.15 K, x1 = 0.74	778.9	0.53
318.15 K, x1 = 0.85	777.2	0.42
318.15 K, x1 = 0.94	775.4	0.33
318.15 K, x1 = 1	773.5	0.27
323.15 K, x1 = 0.0812	761.6	0.99
323.15 K, x1 = 0.16	764.6	0.94
323.15 K, x1 = 0.24	767.1	0.87
323.15 K, x1 = 0.3499	770	0.79
323.15 K, x1 = 0.4402	771.7	0.72
323.15 K, x1 = 0.5619	772.8	0.62
323.15 K, x1 = 0.6483	772.8	0.55
323.15 K, x1 = 0.74	772.4	0.47
323.15 K, x1 = 0.85	770.9	0.38
323.15 K, x1 = 0.94	769.4	0.3
323.15 K, x1 = 1	768.2	0.25
